Key:
[1] = test system: Y537S tumors (TYS cell line); assay: TYS-luc orthotopic tumor model, SERK-F6 i.p. and oral; format: in vivo, mouse
Text: (§1) FIG. 41. SERK-F6 eradicates mutant ERα primary and metastatic breast cancer. a-c, TYS-luc. orthotopic tumors were established in NSG ovariectomized mice (no E2 pellet, 60 days to establish) and dosed daily as indicated (n=5-6). b, representative examples of bioluminescence images of SERK-F6 treated mice (7 days). d,e, TDG-luc. orthotopic tumors were established in NSG ovariectomized mice (no E2 pellet, 120 days to establish) and dosed daily as indicated (n=4-5). e, Bioluminescence image of SERK-F6 treated mouse with TDG-luc. tumor burden after 7 days. f, MYS-luc. orthotopic tumors were established in NSG ovariectomized mice (no E2 pellet, 45 days to establish) and dosed daily as indicated (n=4-5). g, MDG-luc. orthotopic tumors were established in NSG ovariectomized mice (no E2 pellet, 45 days to establish) and dosed daily as indicated (n=4-5). h, Metastatic model with MDG-luc. cells injected into the tail-vein of NSG ovariectomized mice (no E2 pellet, 1.5 months to establish) and mice were dosed daily as indicated (n=4-5).
SERK-F6 treatment was again tolerated (FIG. 42E) at higher doses and enough to eradicate tumors (FIG. 42F).

[2] = test system: D538G mutant tumors (TDG cell line); assay: TDG-luc orthotopic tumor model; format: in vivo, mouse
Text: as §1
FIG. 4A illustrates how IC50's for cell death were determined. 4B tests the ability BHPI, (−)-105, and 01-15 to kill. […] Large orthotopic breast tumors of TYD-Luc cells (T47DERαD538G-luciferase human breast cancer cells) were allowed to form for 4 months in immune suppressed NSG mice. […]

[3] = test system: TYS-Luc cells; assay: Long-term cell culture experiment, TYS-Luc cells (MTS); format: cell-based, human; conditions: 2 weeks 1 μM, then 4 weeks without drug
Experimental: To simulate the effect of several weeks of treatment of a tumor in a mouse xenograft, long-term cell culture experiments were performed. TYS-Luc cells (T47DERαY537S-Luc cells; ERαY537S is the most lethal ERα mutation seen in metastatic breast cancer) were plated at 4,000 cells/well in 96 well plates. […] After 2 weeks (medium change every 2 days) cell number was determined using MTS and a standard curve of absorbance versus cell number for TYS-Luc cells. Notes: (i) Bars denote the BHPI and (−)-105 arms of the experiment. No drug is present during regrow. […] This allows any surviving cells to regrow. After 4 weeks the cells were assayed using MTS. […] (Note: Visual inspection of the wells confirmed that there were no cells in the well treated for 2 weeks with active (−)-105.) To test whether the cells that regrew after BHPI treatment were resistant to BHPI they were re-treated for another cycle (BHPI Retreat) and shown to retain sensitivity to BHPI killing. (n=8 biological replicates±SEM.

[4] = Pharmacokinetics, brain penetration and tolerability in mice; format: in vivo, mouse
Experimental: FIG. 40. SERK-F6 is tolerated, reaches biologically relevant concentrations, and crosses the blood-brain barrier in vivo. a, Serum concentrations of SERK-F6 after indicated doses, route of administration, and time. Concentration was determined via LC/MS/MS analysis. […] AUC: Area Under the Curve, Cmax: maximum concentration, t1/2: half-life. c,d, Mice (CD-1) were treated with the indicated doses and times, then sacrificed and their serum and brains collected. Concentrations were determined via LC/MS/MS analysis. […] Treatment arms: vehicle daily (n=3), vehicle weekly (n=3), fulv. weekly (5 mg/mouse, s.c., n=6), SERK-F6 daily (10 or 40 mg/kg p.o.). Vehicle arms were combined. g, Mass of tumors harvested from mice. h, observed murine weight during this MCF-7 study (n=6). i,j, Tumor measurements for MCF-7 bilateral orthotopic model (n=4-5).
The pharmacokinetics of SERK-F6 was measured in mice (FIG. 40A-B).

[5] = test system: MYS and MDG cells (MCF-7 with Y537S or D538G ERα); assay: MYS-luc / MDG-luc orthotopic and metastatic tumor models; format: in vivo, mouse
Text: FIG. 41. […]
FIG. 43. SERK-F6-mediated eradication of MYS/MDG tumors is dependent on quantitative cell killing. a-b, MYS-luc. orthotopic tumors were established in NSG ovariectomized mice (no E2 pellet, ˜45 days to establish) and dosed daily as indicated (n=5-6). b, Treatment of MYS-luc. tumors were stopped after 21 daily doses of SERK-F6 and mice tumor burden was tracked via bioluminescence. […]

O=C1Nc2c(C(F)(F)F)cccc2C1(c1ccc(O)cc1)c1ccc(OC(F)(F)F)cc1 (single isomer, unassigned; (-)) [(−)-105, 3-(4-hydroxyphenyl)-3-(4-(trifluoromethoxy)phenyl)-7-(trifluoromethyl)indolin-2-one]
tumor regrowth at sub-therapeutic dose ([1]; 10 mg/kg oral): tumors did regrow
tumor regrowth upon treatment cessation ([1]; after treatment cessation): tumors did not regrow
effect on Y537S tumors ([1]; dose-dependent, i.p. and oral administration): eradicates Y537S tumors
efficacy when administered orally ([2]; 40 mg/kg oral gavage, 3 days): effective when administered orally
effect on D538G mutant tumors ([2]; mouse, in vivo): destruction of D538G mutant tumors
regrowth of cells after treatment [3]: no regrowth
blood-brain barrier penetration [4]: blood-brain barrier penetrant
tolerability in vivo [4]: well-tolerated
effect on metastatic tumor burden ([5]; metastatic model): eradicates metastatic tumor burden
effect on MYS / MDG tumors ([5]; mouse, in vivo): Dramatic tumor regressions

Reference: patent US12180159B2, “Activators of the unfolded protein response” (The Board of Trustees of the University of Illinois, priority 2018, dated 2024)
